{"source": "patent US9695155B2", "about": "“Herbicidal substituted pyrimidinyloxy benzene compounds” (E. I. DU PONT DE NEMOURS AND COMPANY, priority 2013, dated 2017)", "key": {"pigweed [1]": {"system": "pigweed", "test": "Test A preemergence", "assay_type": "in vivo, Amaranthus retroflexus", "in_short": "(§1)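 Pre- and postemergence greenhouse screen. Soil: loam + sand. Spray carrier: solvent mixture, non-phytotoxic, with surfactant. Post timing at 1–2 leaves, height 2–10 cm. Readout: visual injury on a 0–100 scale roughly 10 days after application, untreated plants as reference.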"}, "corn [2]": {"system": "corn", "test": "Test C postemergence", "assay_type": "in vivo, Zea mays", "in_short": "(§2)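 Greenhouse herbicide screen. Pre: seeded loam/sand, sprayed at planting. Post: 1–4 leaf plants (2–18 cm) in peat-based mix. Formulation: solvent mixture + surfactant, non-phytotoxic. Readout: visual % control vs untreated, 13–15 d; dash = not tested.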"}, "barnyardgrass": {"system": "barnyardgrass", "test": "Test C postemergence", "assay_type": "in vivo, Echinochloa crus-galli", "in_short": "as §2"}, "wild oat": {"system": "wild oat", "test": "Test C postemergence", "assay_type": "in vivo, Avena fatua", "in_short": "as §2"}, "Italian ryegrass": {"system": "Italian ryegrass", "test": "Test C postemergence", "assay_type": "in vivo, Lolium multiflorum", "in_short": "as §2"}, "giant foxtail": {"system": "giant foxtail", "test": "Test C postemergence", "assay_type": "in vivo, Setaria faberii", "in_short": "as §2"}, "pigweed [3]": {"system": "pigweed", "test": "Test A postemergence", "assay_type": "in vivo, Amaranthus retroflexus", "settings": "0 to 100 scale, 0 no effect, 100 complete control", "in_short": "as §1"}, "pigweed [4]": {"system": "pigweed", "test": "Test C postemergence", "assay_type": "in vivo, Amaranthus retroflexus", "in_short": "as §2"}, "corn [5]": {"system": "corn", "test": "Test A postemergence", "assay_type": "in vivo, Zea mays", "settings": "0 to 100 scale, 0 no effect, 100 complete control", "in_short": "as §1"}, "johnsongrass": {"system": "johnsongrass", "test": "Test C postemergence", "assay_type": "in vivo, Sorghum halepense", "in_short": "as §2"}, "waterhemp": {"system": "waterhemp", "test": "Test C postemergence", "assay_type": "in vivo, Amaranthus rudis", "in_short": "as §2"}, "kochia": {"system": "kochia", "test": "Test C postemergence", "assay_type": "in vivo, Kochia scoparia", "in_short": "as §2"}, "soybean": {"system": "soybean", "test": "Test C postemergence", "assay_type": "in vivo, Glycine max", "in_short": "as §2"}, "[6]": {"settings": "16 g ai/ha, postemergence, 0 is no effect, 100 is complete control"}, "[7]": {"settings": "31 g ai/ha, postemergence, visual rating, scale 0 to 100 (0 no effect, 100 complete control), 13 to 15 days"}, "[8]": {"settings": "125 g ai/ha, postemergence, visual rating, scale 0 to 100 (0 no effect, 100 complete control)"}, "[9]": {"settings": "Postemergence, 62 g ai/ha, scale 0 to 100 (0 no effect, 100 complete control), 13 to 15 days"}}, "data": [{"smiles": "FCc1cccc(Oc2ncc(Cl)cn2)c1-n1cc(I)cn1", "note": "[Compound 245]", "values": [{"measurement": "Plant response rating, Pigweed", "setting": "pigweed [1]; 31 g ai/ha, 0 to 100 scale where 0 is no effect and 100 is complete control, visual, approximately 10 days", "result": 90}, {"measurement": "Pigweed plant response rating (0 to 100 scale)", "setting": "pigweed [1]; 125 g ai/ha", "result": 90}, {"measurement": "Plant response rating (0 to 100), Corn", "setting": "corn [2]; [6]", "result": 5}, {"measurement": "Corn plant response rating", "setting": "corn [2]; [7]", "result": 5}, {"measurement": "Plant response rating, Corn", "setting": "corn [2]; [8]", "result": 5}, {"measurement": "Plant response rating, Corn", "setting": "corn [2]; [9]", "result": 5}, {"measurement": "Plant response rating (0 to 100), Barnyardgrass", "setting": "barnyardgrass; [6]", "result": 5}, {"measurement": "Barnyardgrass plant response rating", "setting": "barnyardgrass; [7]", "result": 5}, {"measurement": "Plant response rating, Barnyardgrass", "setting": "barnyardgrass; [8]", "result": 5}, {"measurement": "Plant response rating, Barnyardgrass", "setting": "barnyardgrass; Postemergence, 62 g ai/ha, scale 0 to 100 (0 no effect, 100 complete control)", "result": 5}, {"measurement": "Plant response rating (0 to 100), Oat, Wild", "setting": "wild oat; [6]", "result": 0}, {"measurement": "Oat, Wild plant response rating", "setting": "wild oat; [7]", "result": 0}, {"measurement": "Plant response rating, Oat, Wild", "setting": "wild oat; [8]", "result": 5}, {"measurement": "Plant response rating, Oat, Wild", "setting": "wild oat; [9]", "result": 5}, {"measurement": "Plant response rating (0 to 100), Ryegrass, Italian", "setting": "Italian ryegrass; [6]", "result": 0}, {"measurement": "Ryegrass, Italian plant response rating", "setting": "Italian ryegrass; [7]", "result": 0}, {"measurement": "Plant response rating, Ryegrass, Italian", "setting": "Italian ryegrass; [8]", "result": 5}, {"measurement": "Plant response rating, Ryegrass, Italian", "setting": "Italian ryegrass; [9]", "result": 0}, {"measurement": "Plant response rating (0 to 100), Foxtail, Giant", "setting": "giant foxtail; [6]", "result": 35}, {"measurement": "Foxtail, Giant plant response rating", "setting": "giant foxtail; [7]", "result": 35}, {"measurement": "Plant response rating, Foxtail, Giant", "setting": "giant foxtail; [8]", "result": 15}, {"measurement": "Plant response rating, Foxtail, Giant", "setting": "giant foxtail; [9]", "result": 20}, {"measurement": "Plant response rating, Pigweed", "setting": "pigweed [3]; 31 g ai/ha", "result": 0}, {"measurement": "Plant response rating, Pigweed", "setting": "pigweed [3]; 125 g ai/ha", "result": 90}, {"measurement": "Plant response rating (0 to 100), Pigweed", "setting": "pigweed [4]; [6]", "result": 40}, {"measurement": "Pigweed plant response rating", "setting": "pigweed [4]; [7]", "result": 55}, {"measurement": "Plant response rating, Pigweed", "setting": "pigweed [4]; [8]", "result": 85}, {"measurement": "Plant response rating, Pigweed", "setting": "pigweed [4]; [9]", "result": 75}, {"measurement": "Plant response rating, Corn", "setting": "corn [5]; 31 g ai/ha", "result": 20}, {"measurement": "Plant response rating, Corn", "setting": "corn [5]; 125 g ai/ha", "result": 40}, {"measurement": "Plant response rating (0 to 100), Johnsongrass", "setting": "johnsongrass; [6]", "result": 5}, {"measurement": "Johnsongrass plant response rating", "setting": "johnsongrass; [7]", "result": 5}, {"measurement": "Plant response rating, Johnsongrass", "setting": "johnsongrass; [8]", "result": 10}, {"measurement": "Plant response rating, Johnsongrass", "setting": "johnsongrass; [9]", "result": 10}, {"measurement": "Plant response rating (0 to 100), Waterhemp", "setting": "waterhemp; [6]", "result": 60}, {"measurement": "Waterhemp plant response rating", "setting": "waterhemp; [7]", "result": 65}, {"measurement": "Plant response rating, Waterhemp", "setting": "waterhemp; [8]", "result": 75}, {"measurement": "Plant response rating, Waterhemp", "setting": "waterhemp; [9]", "result": 85}, {"measurement": "Plant response rating (0 to 100), Kochia", "setting": "kochia; [6]", "result": 45}, {"measurement": "Kochia plant response rating", "setting": "kochia; [7]", "result": 75}, {"measurement": "Plant response rating, Kochia", "setting": "kochia; [8]", "result": 98}, {"measurement": "Plant response rating, Kochia", "setting": "kochia; [9]", "result": 90}, {"measurement": "Plant response rating (0 to 100), Soybean", "setting": "soybean; [6]", "result": 40}, {"measurement": "Soybean plant response rating", "setting": "soybean; [7]", "result": 60}, {"measurement": "Plant response rating, Soybean", "setting": "soybean; [8]", "result": 90}, {"measurement": "Plant response rating, Soybean", "setting": "soybean; [9]", "result": 60}]}]}
